Laboratory results from patent publication US6831199B1, “Pyrimidine compounds and derivatives thereof” (G. D. Searle & Co., priority 1995, dated 2004).
Counter-ions that a name gives are not always drawn.

How the values were obtained:
[1] = test system: platelet rich plasma; assay: Human platelet rich plasma assay (ADP induced platelet aggregation); type: cell-based; conditions: Homo sapiens, Platelet, ADP induced platelet aggregation in human platelet rich plasma; read-out: Human PRP
In short: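 Citrated platelet-rich plasma from aspirin-free healthy human donors was stirred at 37 °C and preincubated with compound for 1 min. Aggregation was then triggered with ADP (added as a 200 uM solution) and recorded photometrically for 3 min. Dose–response curves were built from % inhibition of the maximal saline-control response.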

[2] = test system: M21 human melanoma cells; assay: M21 melanoma cell adhesion assay (αvβ3-dependent adhesion to human fibrinogen-coated plates); type: cell-based; conditions: Homo sapiens, M21; read-out: M21 Melanoma Cells IC50
Experimental: M21 MELANOMA CELL ADHESION ASSASY
This assay involves an αvβ3-dependent adhesion of M21 human melanoma cells to human fibrinogen-coated plastic tissue culture dishes.
Fibrinogen was purified from human plasma. Fibronectin and plasminogen were eliminated from the preparation by passing the sample over gelatin-sepharose 4B and lysine-sepharose 4B resins, respectively. The fibrinogen is diluted to 10 μg/mL in coating buffer ([…] Tris-HCl, 150 mM NaCl, pH 7.4). 100 μL of diluted fibrinogen is added to each well of a 96-well Immulon 2 microtiter plate (Dynatech; Chantilly, Va.) and allowed to coat overnight at 4° C. Plates are blocked with 1% BSA (Miles/Pentex; Kankakee, Ill.) in adhesion buffer (Hank's balanced salt solution without Ca^++ or Mg^++ [HBSS−−], 50 mM Hepes, 1 mg/mL BSA, pH 7.4) for 1 hour at 37° C.
M21 human melanoma cells were provided by Dr. J. Smith, La Jolla Cancer Research Institute. M21 cells are harvested from tissue culture flasks by washing with HBSS−− and adding cell dissociation solution (Sigma) and incubating for 5 minutes at 37° C. Harvested cells are washed 3 times with adhesion assay buffer containing 200 μM Mn^++. Cells are counted and suspended to a density of 2×10^6/mL in adhesion assay buffer containing 200 μM Mn^++. M21 cells are pre-incubated with antagonists of αvβ3 for 30 minutes at room temperature. Following the pre-incubation, the solutions containing a mixture of cells and antagonists are added to each well of the microtiter plate and allowed to bind for 30 minutes at 37° C.
Following adhesion, plates are gently washed 3 times with 200 μL of wash buffer (50 mM Tris-HCl, 150 mM NaCl, pH 7.4) using large bore pipet tips. Plates are briefly blotted dry and 100 μL of cell lysis buffer (50 mM sodium acetate, pH 5.0, 0.5% Triton X-100, 0.3 mg/mL p-nitrophenyl phosphate [Sigma] is added to each well. Plates are incubated for 60 minutes at 37° C. and 50 μL of 1N NaOH is added to stop the reaction. The absorbance of the wells at […] is read using an automatic plate reader.

[3] = molecular target: T1, Human vitronectin receptor (αvβ3) (Homo sapiens, UniProt P05106+P06756); assay: Vitronectin adhesion assay (solid phase receptor assay, competition with biotinylated vitronectin); type: binding; conditions: read-out: AvB3 IC50
T1 construct: Human vitronectin receptor (αvβ3) was purified from human placenta; from tissue; host or cells: human placenta
In short: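 Purified human αvβ3 coated overnight at 4 °C in TBS with 1.0 mM Ca++, Mg++, Mn++, pH 7.4; compounds (top final 1.0×10^−4 M) competed with 1 nM biotinylated vitronectin for 2 h at room temperature. Bound ligand detected by HRP anti-biotin/OPD at A450; values normalized to no-competitor controls, four-parameter curve fit.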

Compound	IC50 [1] [nM]	IC50 [2] [nM]	IC50 [3] [nM]
N=C(N)Nc1cccc(C(=O)NCC(=O)NC(CCS(=O)(=O)c2ccccc2C(=O)O)CC(=O)O)c1 (racemic) [60(C), (±)2-[3-[[2-[[[3-[(aminoiminomethyl)amino]phenyl]carbonyl]amino]acetyl]amino]-4-carboxybutyl]sulfonyl]benzoic acid, trifluoroacetate]	> 200000	0.74	0.73
N=C(N)Nc1cccc(C(=O)NCC(=O)NC(CC(=O)O)c2ccccc2)c1 (racemic) [Example 4, (±)β-[[2-[[[3-[(aminoiminomethyl)amino]phenyl]carbonyl]amino]acetyl]amino]benzene-propanoic acid, trifluoroacetate salt]	> 200000	3.3	3.17
N=C(N)Nc1cc(C(=O)NCC(=O)NC(CC(=O)O)c2cccnc2)c2ccccc2c1 (racemic) [Example 8, (±)β-[[2-[[[3-[(aminoiminomethyl)amino]naphthalen-1-yl]carbonyl]amino]acetyl]amino]pyridine-3-propanoic acid, bis(trifluoroacetate)salt]	73300	0.28	0.69
O=C(O)CC(NC(=O)CNC(=O)c1cccc(NC2=NCCN2)c1)c1cccnc1 (racemic) [Example 10, (±)β-[[2-[[[3-[(4,5-dihydro-1H-imidazol-2-yl)amino]phenyl]carbonyl]amino]acetyl]amino]pyridine-3-propanoic acid, bis(trifluoroacetate)salt]	> 200000	1.82	0.92
O=C(O)CC(NC(=O)CNC(=O)c1cccc(NC2=NCCCCC2)c1)c1cccnc1 (racemic) [Example 12, (±)β-[[2-[[[3-[(3,4,5,6-tetrahydro-2H-azepin-7-yl)amino]phenyl]carbonyl]amino]acetyl]amino]pyridine-3-propanoic acid, bis(trifluoroacetate)salt]	> 200000	9.32	1.1
O=C(O)CC(NC(=O)CNC(=O)c1cccc(NC2=NCCCCC2)c1)c1ccc2c(c1)OCO2 (racemic) [Example 14, (±)β-[[2-[[[3-[(3,4,5,6-tetrahydro-2H-azepin-7-yl)amino]phenyl]carbonyl]amino]acetyl]amino]-1,3-benzodioxole-5-propanoic acid, TFA salt]	> 200000	5.42	1.62
O=C(O)CC(NC(=O)CNC(=O)c1cccc(NC2=NCCCCC2)c1)c1ccccc1 (racemic) [Example 15, (±)β-[[2-[[[3-[(3,4,5,6-tetrahydro-2H-azepin-7-yl)amino]phenyl]carbonyl]amino]acetyl]amino]benzenepropanoic acid, trifluoroacetate salt]	> 200000	202	10.2
N=C(NCc1ccccc1)Nc1cccc(C(=O)NCC(=O)NC(CC(=O)O)c2cccnc2)c1 (racemic) [Example 24, (±)β-[[2-[[[3-[[imino[(phenylmethyl)amino]methyl]amino]phenyl]carbonyl]amino]acetyl]amino]pyridine-3-propanoic acid, bis(trifluoroacetate)salt]	> 200000	12.7	0.91
N=C(N)Nc1cccc(C(=O)NCC(=O)NC(CC(=O)O)c2cc(C(F)(F)F)cc(C(F)(F)F)c2)c1 (racemic) [Example 36, (±)β-[[2-[[[3-[(aminoiminomethyl)amino]phenyl]carbonyl]amino]acetyl]amino]-3,5-bis(trifluoromethyl)benzenepropanoic acid, trifluoroacetate salt]	> 200000	143	14.6
O=C(O)CC(NC(=O)CNC(=O)c1cccc(NC(=O)NCc2ccccc2)c1)c1cccnc1 (racemic) [Example 47, (±)β-[[2-[[[3-[[[(phenylmethyl)amino]carbonyl]amino]phenyl]carbonyl]amino]acetyl]amino]pyridine-3-propanoic acid, hydrochloride salt]	> 200000	1.18	0.86
N=C(N)Nc1cccc(C(=O)NCC(=O)NC(CC(=O)O)c2ccoc2)c1 (racemic) [Example 52, (±)β-[[2-[[[3-[(aminoiminomethyl)amino]phenyl]carbonyl]amino]acetyl]amino]furan-3-propanoic acid, trifluoroacetate salt]	> 200000	11.7	3.62
N=C(N)Nc1cccc(C(=O)NCC(=O)NC(CC(=O)O)c2ccc3ccccc3c2)c1 (racemic) [Example 56, (±)β-[[2-[[[3-[(aminoiminomethyl)amino]phenyl]carbonyl]amino]acetyl]amino]naphthalene-2-propanoic acid, trifluoroacetate salt]	> 200000	6.87	3.12
N=C(N)Nc1cccc(C(=O)NCC(=O)NC(CC(=O)O)c2ccsc2)c1 (racemic) [Example 59, (±)β-[[2-[[[3-[(aminoiminomethyl)amino]phenyl]carbonyl]amino]acetyl]amino]thiophene-3-propanoic acid, trifluoroacetate salt]	> 200000	24.3	2.35
N=C(N)Nc1cccc(C(=O)NCC(=O)NC(CC(=O)O)c2cccs2)c1 (racemic) [Example 61, (±)β-[[2-[[[3-[(aminoiminomethyl)amino]phenyl]carbonyl]amino]acetyl]amino]thiophene-2-propanoic acid, trifluoroacetate salt]	> 200000	228	1.76
Cc1ccc(SCCC(CC(=O)O)NC(=O)CNC(=O)c2cccc(NC(=N)N)c2)cc1 (racemic) [Example 66, (±)3-[[2-[[[3-[(aminoiminomethyl)amino]phenyl]carbonyl]amino]acetyl]amino]-5-[(4-methylphenyl)thio]pentanoic acid, trifluoroacetate salt]	> 100000	2.51	1.44
Cc1ccc(S(=O)(=O)CCC(CC(=O)O)NC(=O)CNC(=O)c2cccc(NC(=N)N)c2)cc1 (racemic) [Example 67, (±)3-[[2-[[[3-[(aminoiminomethyl)amino]phenyl]carbonyl]amino]acetyl]amino]-5-[(4-methylphenyl)sulfonyl]pentanoic acid, trifluoroacetate salt]	> 200000	4.08	2.05
Cc1ccc(C(=O)NCC(=O)NC(CC(=O)O)c2cccnc2)cc1NC(=N)N (racemic) [Example 83, (±)β-[[2-[[[3-[(aminoiminomethyl)amino]-4-methylphenyl]carbonyl]amino]acetyl]amino]pyridine-3-propanoic acid, bis(trifluoroacetate)salt]	> 200000	11	3.39
Cc1ccc(O)c(C(CC(=O)O)NC(=O)CNC(=O)c2cccc(NC(=N)N)c2)c1 (racemic) [Example 88, (±)β-[[2-[[[3-[(aminoiminomethyl)amino]phenyl]carbonyl]amino]acetyl]amino]-2-hydroxy-5-methylbenzenepropanoic acid, trifluoroacetate salt]	> 200000	52.3	8.44
O=C(O)CC(NC(=O)CNC(=O)c1cccc(NC2=NCCC2)c1)c1cccnc1 (stereo not drawn) [Example 17, β-[[2-[[[3-[(3,4-dihydro-2H-pyrrol-5-yl)amino]phenyl]carbonyl]amino]acetyl]amino]pyridine-3-propanoic acid, bis(trifluoroacetate)salt]	> 200000	3.64	2.66
C#C[C@H](CC(=O)O)NC(=O)CNC(=O)c1cccc(NC2=NCCCCC2)c1 [Example 30, βS-[[2-[[[3-[(3,4,5,6-tetrahydro-2H-azepin-7-yl)amino]phenyl]carbonyl]amino]acetyl]amino]-4-pentynoic acid, trifluoroacetate salt]	> 200000	320	1.75
